Values after ≈ are worked out from the molar mass of the structure shown. Like-named read-outs stand apart in the source and are kept apart here.
Tests used:
Assay in all cases: microbe, parasite or virus in culture
E. coli DH10B = system: T1, E. coli DH10B; design: species or system bacterial strain of the line; Mueller-Hinton agar-dilution MIC, CLSI; concentration at which bacterial growth was no longer observed; settings: Escherichia coli
T1 construct: DH10B
Description: (§1) Mueller-Hinton (MH) agar-dilution MIC measurements were performed according to Clinical and Laboratory Standards Institute (CLSI) guidelines as previously described ([12], [30]). The MICs are reported as the concentrations at which bacterial growth was no longer observed. Avibactam was tested at a constant 4 µg/ml in combination with its respective antibiotic partners. All MIC measurements were performed at least three times. The impact of site-saturation mutagenesis at Ambler position 179 of KPC-2 on antibiotic resistance was next assessed using whole-cell viability assays. Twenty-four different β-lactam and β-lactam–β-lactamase inhibitor combinations were tested for susceptibility against KPC-2 and the 19 variants expressed in E. coli DH10B cells (Tables 1 and 2). The Klebsiella pneumoniae KPC-2-containing positive-control strain maintained resistance (as defined by Clinical and Laboratory Standards Institute [CLSI] criteria) against all the commercially available β-lactams tested (Table 1).

E. coli DH10B pBC SK = system: T2, E. coli DH10B pBC SK; design: species or system bacterial strain of the line; Mueller-Hinton agar-dilution MIC, CLSI; concentration at which bacterial growth was no longer observed; settings: Escherichia coli, empty vector pBC SK
T2 construct: DH10B carries empty vector pBC SK
Description: as §1

K. pneumoniae KPC-2 = system: T3, K. pneumoniae KPC-2; design: species or system bacterial strain of the line; Mueller-Hinton agar-dilution MIC, CLSI; concentration at which bacterial growth was no longer observed; settings: Klebsiella pneumoniae
T3 construct: KPC-2-producing control strain, also producing TEM-1 and SHV-29

[1] = system: T4, blaKPC-2 179 Asp (WT) in E. coli DH10B; design: species or system E. coli DH10B / K. pneumoniae; Mueller-Hinton agar dilution MIC, CLSI, no visible growth; settings: Escherichia coli
T4 construct: DH10B expressing blaKPC-2 (wild type)
Description: Mueller-Hinton (MH) agar-dilution MIC measurements were performed according to Clinical and Laboratory Standards Institute (CLSI) guidelines as previously described ([12], [30]). The MICs are reported as the concentrations at which bacterial growth was no longer observed. Avibactam was tested at a constant 4 µg/ml in combination with its respective antibiotic partners. All MIC measurements were performed at least three times.

[2] = BAL, read-out: MIC(s) (µg/ml) / BAL

C[C@H]1[C@H](NC(=O)/C(=N\OC(C)(C)C(=O)O)c2csc(N)n2)C(=O)N1S(=O)(=O)O [AZT, aztreonam]
MIC (E. coli DH10B; DH10B, read-out: MIC(s) (µg/ml) / AZT): 0.06 µg/mL | MIC (E. coli DH10B pBC SK; DH10BPBCSK, read-out: MIC(s) (µg/ml) / AZT): 0.06 µg/mL

CC1(C)[C@H](NC(=O)/C(=N\OCc2cc(=O)c(O)cn2O)c2csc(N)n2)C(=O)N1OS(=O)(=O)O [BAL30072]
MIC (E. coli DH10B; [2]): ≤ 0.06 µg/mL | MIC (E. coli DH10B pBC SK; [2]): ≤ 0.06 µg/mL | MIC (K. pneumoniae KPC-2; [2]): 8 µg/mL (≈ 15.4 µM) | MIC [1, 2]: ≤ 0.06 µg/mL

CC(C)(O/N=C(\C(=O)N[C@@H]1C(=O)N2C(C(=O)[O-])=C(C[n+]3ccccc3)CS[C@H]12)c1csc(N)n1)C(=O)O [CAZ, ceftazidime]
MIC (E. coli DH10B; DH10B, read-out: MIC(s) (µg/ml) / CAZ): 0.25 µg/mL | MIC (E. coli DH10B pBC SK; DH10BPBCSK, read-out: MIC(s) (µg/ml) / CAZ): 0.25 µg/mL | MIC (K. pneumoniae KPC-2; KPC2, read-out: MIC(s) (µg/ml) / CAZ): 64 µg/mL (≈ 117 µM) | MIC ([1]; read-out: MIC(s) (µg/ml) / CAZ): 1 µg/mL

CO/N=C(\C(=O)N[C@@H]1C(=O)N2C(C(=O)O)=C(CSc3nc(=O)c(=O)[nH]n3C)CS[C@H]12)c1csc(N)n1 [CRO, ceftriaxone]
MIC (E. coli DH10B; DH10B, read-out: MIC(s) (µg/ml) / CRO): ≤ 0.06 µg/mL | MIC (E. coli DH10B pBC SK; DH10BPBCSK, read-out: MIC(s) (µg/ml) / CRO): ≤ 0.06 µg/mL | MIC ([1]; read-out: MIC(s) (µg/ml) / CRO): 0.5 µg/mL

C[C@@H](O)[C@H]1C(=O)N2C(C(=O)O)=C(SCCN=CN)C[C@H]12 [IMI, imipenem]
MIC (E. coli DH10B; DH10B, read-out: MIC(s) (µg/ml) / IMI): 0.5 µg/mL | MIC (E. coli DH10B pBC SK; DH10BPBCSK, read-out: MIC(s) (µg/ml) / IMI): 0.5 µg/mL | MIC (K. pneumoniae KPC-2; KPC2, read-out: MIC(s) (µg/ml) / IMI): 16 µg/mL (≈ 53.4 µM) | MIC ([1]; read-out: MIC(s) (µg/ml) / IMI): 1 µg/mL

CCO/N=C(\C(=O)N[C@@H]1C(=O)N2C(C(=O)[O-])=C(Sc3nc(-c4cc[n+](C)cc4)cs3)CS[C@H]12)c1nsc(N)n1 [TAR, ceftaroline]
MIC (E. coli DH10B; DH10B, read-out: MIC(s) (µg/ml) / TAR): 0.06 µg/mL | MIC (E. coli DH10B pBC SK; DH10BPBCSK, read-out: MIC(s) (µg/ml) / TAR): < 0.06 µg/mL | MIC (K. pneumoniae KPC-2; KPC2, read-out: MIC(s) (µg/ml) / TAR): 512 µg/mL (≈ 847 µM) | MIC ([1]; read-out: MIC(s) (µg/ml) / TAR): 1 µg/mL

CC1(C)S[C@@H]2[C@H](NC(=O)[C@H](N)c3ccccc3)C(=O)N2[C@H]1C(=O)O [ampicillin]
MIC (E. coli DH10B; DH10B, read-out: MIC(s) (µg/ml) / AMP): 8 µg/mL | MIC (E. coli DH10B pBC SK; DH10BPBCSK, read-out: MIC(s) (µg/ml) / AMP): 4 µg/mL | MIC (K. pneumoniae KPC-2; KPC2, read-out: MIC(s) (µg/ml) / AMP): > 8190 µg/mL | MIC ([1]; read-out: MIC(s) (µg/ml) / AMP): 64 µg/mL

CO/N=C(\C(=O)N[C@@H]1C(=O)N2C(C(=O)[O-])=C(C[N+]3(C)CCCC3)CS[C@H]12)c1csc(N)n1 [cefepime]
MIC (E. coli DH10B; DH10B, read-out: MIC(s) (µg/ml) / FEP): ≤ 0.125 µg/mL | MIC (E. coli DH10B pBC SK; DH10BPBCSK, read-out: MIC(s) (µg/ml) / FEP): ≤ 0.125 µg/mL | MIC (K. pneumoniae KPC-2; KPC2, read-out: MIC(s) (µg/ml) / FEP): 64 µg/mL (≈ 133 µM) | MIC ([1]; read-out: MIC(s) (µg/ml) / FEP): 0.125 µg/mL

CO/N=C(\C(=O)N[C@@H]1C(=O)N2C(C(=O)O)=C(COC(C)=O)CS[C@H]12)c1csc(N)n1 [cefotaxime]
MIC (E. coli DH10B; DH10B, read-out: MIC(s) (µg/ml) / TAX): ≤ 0.06 µg/mL | MIC (E. coli DH10B pBC SK; DH10BPBCSK, read-out: MIC(s) (µg/ml) / TAX): ≤ 0.06 µg/mL | MIC (K. pneumoniae KPC-2; KPC2, read-out: MIC(s) (µg/ml) / TAX): 64 µg/mL (≈ 141 µM) | MIC ([1]; read-out: MIC(s) (µg/ml) / TAX): 0.25 µg/mL

CC(=O)OCC1=C(C(=O)O)N2C(=O)[C@@H](NC(=O)Cc3cccs3)[C@H]2SC1 [cephalothin]
MIC (E. coli DH10B; DH10B, read-out: MIC(s) (µg/ml) / THIN): 4 µg/mL | MIC (E. coli DH10B pBC SK; DH10BPBCSK, read-out: MIC(s) (µg/ml) / THIN): 4 µg/mL | MIC (K. pneumoniae KPC-2; KPC2, read-out: MIC(s) (µg/ml) / THIN): 2050 µg/mL (≈ 5170 µM) | MIC ([1]; read-out: MIC(s) (µg/ml) / THIN): 64 µg/mL

C[C@@H](O)[C@H]1C(=O)N2C(C(=O)O)=C(S[C@@H]3CN[C@H](CNS(N)(=O)=O)C3)[C@H](C)[C@H]12 [doripenem]
MIC (E. coli DH10B; DH10B, read-out: MIC(s) (µg/ml) / DOR): ≤ 0.06 µg/mL | MIC (E. coli DH10B pBC SK; DH10BPBCSK, read-out: MIC(s) (µg/ml) / DOR): ≤ 0.06 µg/mL | MIC (K. pneumoniae KPC-2; KPC2, read-out: MIC(s) (µg/ml) / DOR): 8 µg/mL (≈ 19 µM) | MIC ([1]; read-out: MIC(s) (µg/ml) / DOR): 0.125 µg/mL

C[C@@H](O)[C@H]1C(=O)N2C(C(=O)O)=C(S[C@@H]3CN[C@H](C(=O)Nc4cccc(C(=O)O)c4)C3)[C@H](C)[C@H]12 [ertapenem]
MIC (E. coli DH10B; DH10B, read-out: MIC(s) (µg/ml) / ERT): ≤ 0.03 µg/mL | MIC (E. coli DH10B pBC SK; DH10BPBCSK, read-out: MIC(s) (µg/ml) / ERT): ≤ 0.03 µg/mL | MIC (K. pneumoniae KPC-2; KPC2, read-out: MIC(s) (µg/ml) / ERT): 32 µg/mL (≈ 67.3 µM) | MIC ([1]; read-out: MIC(s) (µg/ml) / ERT): ≤ 0.06 µg/mL

C[C@@H](O)[C@H]1C(=O)N2C(C(=O)O)=C(S[C@@H]3CN[C@H](C(=O)N(C)C)C3)[C@H](C)[C@H]12 [meropenem]
MIC (E. coli DH10B; DH10B, read-out: MIC(s) (µg/ml) / MEM): ≤ 0.06 µg/mL | MIC (E. coli DH10B pBC SK; DH10BPBCSK, read-out: MIC(s) (µg/ml) / MEM): ≤ 0.06 µg/mL | MIC (K. pneumoniae KPC-2; KPC2, read-out: MIC(s) (µg/ml) / MEM): 16 µg/mL (≈ 41.7 µM) | MIC ([1]; read-out: MIC(s) (µg/ml) / MEM): 0.06 µg/mL

CCN1CCN(C(=O)N[C@@H](C(=O)N[C@@H]2C(=O)N3[C@@H]2SC(C)(C)[C@@H]3C(=O)O)c2ccccc2)C(=O)C1=O [piperacillin]
MIC (E. coli DH10B; DH10B, read-out: MIC(s) (µg/ml) / PIP): 2 µg/mL | MIC (E. coli DH10B pBC SK; DH10BPBCSK, read-out: MIC(s) (µg/ml) / PIP): 2 µg/mL | MIC (K. pneumoniae KPC-2; KPC2, read-out: MIC(s) (µg/ml) / PIP): 2050 µg/mL (≈ 3960 µM) | MIC ([1]; read-out: MIC(s) (µg/ml) / PIP): 8 µg/mL

Source: article PMC5666153, “Klebsiella pneumoniae Carbapenemase-2 (KPC-2), Substitutions at Ambler Position Asp179, and Resistance to Ceftazidime-Avibactam: Unique Antibiotic-Resistant Phenotypes Emerge from β-Lactamase Protein Engineering” (mBio, 2017)
